Patent US7108865B2, “Controlled-release dosage forms of azithromycin” (Pfizer Inc, priority 1994, dated 2006)

How the values were obtained:
[1] = Visual Analogue Scale gastrointestinal side effects after 2 g oral capsule dose, single vs divided (Example 1); assay type: in vivo, human; design: key to Mean Cumulative Score (Visual Analogue Scale), abdominal pain / Mean Cumulative Score (Visual Analogue Scale), nausea / Mean Cumulative Score (Visual Analogue Scale), regurgitation / Mean Cumulative Score (Visual Analogue Scale), abdominal cramping: per-subject sum of 0–10 VAS scores over 240 h, averaged over group; conditions: for Incidence of Visual-Analogue-Scale score >1, abdominal cramping / Incidence of Visual-Analogue-Scale score >1, abdominal pain / Incidence of Visual-Analogue-Scale score >1, nausea / Incidence of Visual-Analogue-Scale score >1, regurgitation / Incidence of Visual-Analogue-Scale score >4, abdominal cramping / Incidence of Visual-Analogue-Scale score >4, abdominal pain / Incidence of Visual-Analogue-Scale score >4, nausea / Incidence of Visual-Analogue-Scale score >4, regurgitation: any time during 240 hr post-dose, #patients reporting score/total # patients; for Mean Cumulative Score (Visual Analogue Scale), abdominal cramping / Mean Cumulative Score (Visual Analogue Scale), abdominal pain / Mean Cumulative Score (Visual Analogue Scale), nausea / Mean Cumulative Score (Visual Analogue Scale), regurgitation: entire 240 hour post-dose period
Protocol: In a double-blind, randomized, placebo-controlled parallel group study, healthy male subjects were divided into three groups. Group A received a single 2 g azithromycin dose as eight 250 mg azithromycin capsules (“bolus dosing” group). Group B received the same total dose, administered as eight 250 mg capsules at the rate of one 250 mg capsule each 30 minutes for 3.5 hr (“divided dosing” group). Group C received matching placebo capsules. All subjects received eight capsules of drug or placebo at time 0, and a capsule of drug or placebo every half-hour for 3.5 hr. All subjects were dosed after an overnight fast. […] Tmax is the time at which Cmax is achieved.
Prior to dosing and each blood sampling time, each subject filled out a questionnaire, which consisted of a series of “Visual Analogue Scales” in which the subject was required to rate, on a scale of 0–10, the severity of certain potential side effects. The subjects were instructed that “0” indicated an absent effect and “10” indicated the worst possible effect. The subjects were instructed to interpolate between 0 and 10 for moderate side effects.
Analysis of side effect visual-analogue-scale data was carried out in two formats. In the first format (Table II), the analysis concentrated on the general incidence of side effects of a particular type. For each side effect type (e.g., abdominal pain), Table II reports the number of subjects who reported a score >1 at any time during the 240 hr post-dosing, and the number of subjects who reported a score >4 at any time during the 240 hr post-dosing. This analysis assumes that all scores >1 represent a real side effect occurrence, however mild or severe. A score >4 is presumed to reflect a moderate-to-severe side effect occurrence.
In the second format (Table III), the analysis reflects the general severity and duration of side effects. For a particular side effect (e.g., Abdominal Pain) in a particular subject, all visual-analogue-scale scores (over the 240 hr post-dose period) were summed to give a “cumulative score” over the entire time period of evaluation. “Cumulative scores” for all members of a treatment group were summed, and divided by the number of subjects in the group, to give a Mean Cumulative Score. […] Table III presents Mean Cumulative Scores for abdominal pain, nausea, regurgitation, and abdominal cramping.

clinical = conditions: male, human, in vivo
Excerpt: Healthy male subjects were divided into two groups. Group A received a 2 g azithromycin dose administered directly into the duodenum as a solution via a nasoenteric tube. Group B received the same azithromycin solution dose, administered directly into the ileocecal region of the small intestine via a nasoenteric tube. The nasoenteric tube was a single lumen, 4.5 meter tube with a side port for delivery of drug. Placement of the tube for duodenal and ileocecal delivery was confirmed by fluoroscopy. Infusions to the duodenum or ileocecal region were administered at a concentration of 40 mg/ml within 5 minutes. All subjects were dosed after an overnight fast. Subjects were randomized to receive azithromycin and placebo via nasoenteric tube and intravenous infusion in a double-blind, placebo controlled fashion.
Blood samples were withdrawn prior to dosing, and at 0.08, 0.17, 0.33, 0.66, 1, 2, 4, 8, 12, 24, 48, 72, and 96 hr post-dosing. Serum azithromycin concentrations were determined using the high performance liquid chromatography assay described in Shepard et al., J. Chromatography, 565: 321–337, (1991). Total systemic exposure to azithromycin was determined by measuring the area under the serum azithromycin concentration vs. time curve (AUC) for each subject in a given group, and then by calculating a mean AUC for the group. Cmax is the highest serum azithromycin concentration achieved in a subject. Tmax is the time at which Cmax is achieved. In one leg of this study, all subjects received an intravenous 2g azithromycin dose. The intravenous AUC was determined in order to calculate the absolute duodenal and ileocecal bioavailabilities, as described below.

[2] = Serum azithromycin pharmacokinetics after 2 hr intravenous infusion (Example 3); assay type: in vivo; conditions: male, human, 2 hr infusion
Protocol: Healthy male subjects were divided into four groups. Group A received a 2 hr intravenous infusion of a placebo solution (0 g azithromycin). Group B received a 2 hr intravenous infusion of a 1 g dose of azithromycin. Group C received a 2 hr intravenous infusion of a 2 g dose of azithromycin. Group D received a 2 hr intravenous infusion of a 4 g dose of azithromycin. […] All subjects were dosed after an overnight fast.
Tmax is the time at which Cmax is achieved.

[3] = 3,995 patients, all dose levels combined, cited from earlier work
[4] = human body; cited from earlier work
[5] = cited from earlier work
[6] = 250 mg per half-hr for 3.5 hr (2 g total), oral
[7] = 250 mg/half-hr for 3.5 hr (2 g total), oral

For CC[C@H]1OC(=O)[C@H](C)[C@@H](O[C@H]2C[C@@](C)(OC)[C@@H](O)[C@H](C)O2)[C@H](C)[C@@H](O[C@@H]2O[C@H](C)C[C@H](N(C)C)[C@H]2O)[C@](C)(O)C[C@@H](C)CN(C)[C@H](C)[C@@H](O)[C@]1(C)O [azithromycin, 9a-aza-9a-methyl-9-deoxo-9a-homoerythromycin A], the “Incidence of Visual-Analogue-Scale score >1, abdominal cramping” value [1, 6] was 4/14, the “Incidence of Visual-Analogue-Scale score >1, abdominal pain” value [1, 6] was 6/14 and the “Incidence of Visual-Analogue-Scale score >1, nausea” value [1, 6] was 3/14. The “Incidence of Visual-Analogue-Scale score >1, regurgitation” value [1, 6] was 0/14, the “Incidence of Visual-Analogue-Scale score >4, abdominal cramping” value [1, 6] was 0/14 and the “Incidence of Visual-Analogue-Scale score >4, abdominal pain” value [1, 6] was 1/14. For the same compound, the “Incidence of Visual-Analogue-Scale score >4, nausea” value [1, 6] was 0/14, the “Incidence of Visual-Analogue-Scale score >4, regurgitation” value [1, 6] was 0/14 and the “Mean Cumulative Score (Visual Analogue Scale), abdominal cramping” value [1, 7] was 4.46. The “Mean Cumulative Score (Visual Analogue Scale), abdominal pain” value [1, 7] was 6.31, the “Mean Cumulative Score (Visual Analogue Scale), nausea” value [1, 7] was 2.77 and the “Mean Cumulative Score (Visual Analogue Scale), regurgitation” value [1, 7] was 1.38. For the same compound, the “Incidence of Visual-Analogue-Scale score >1, abdominal cramping” value ([1]; 2 g single oral dose) was 6/15, the “Incidence of Visual-Analogue-Scale score >1, abdominal pain” value ([1]; 2 g single oral dose) was 6/15 and the “Incidence of Visual-Analogue-Scale score >1, nausea” value ([1]; 2 g single oral dose) was 2/15. For the same compound, the “Incidence of Visual-Analogue-Scale score >1, regurgitation” value ([1]; 2 g single oral dose) was 0/15, the “Incidence of Visual-Analogue-Scale score >4, abdominal cramping” value ([1]; 2 g single oral dose) was 1/15 and the “Incidence of Visual-Analogue-Scale score >4, abdominal pain” value ([1]; 2 g single oral dose) was 2/15. The “Incidence of Visual-Analogue-Scale score >4, nausea” value ([1]; 2 g single oral dose) was 1/15, the “Incidence of Visual-Analogue-Scale score >4, regurgitation” value ([1]; 2 g single oral dose) was 0/15 and the “Mean Cumulative Score (Visual Analogue Scale), abdominal cramping” value ([1]; 2 g single oral dose) was 4.67. For the same compound, the “Mean Cumulative Score (Visual Analogue Scale), abdominal pain” value ([1]; 2 g single oral dose) was 6.4, the “Mean Cumulative Score (Visual Analogue Scale), nausea” value ([1]; 2 g single oral dose) was 1.93 and the “Mean Cumulative Score (Visual Analogue Scale), regurgitation” value ([1]; 2 g single oral dose) was 0.53. For the same compound, the “AUC0–96” value (clinical) was 14500 ng·h/mL, the bioavailability (clinical) was 39.1% and the “bioavailability for duodenal dosing (AUCduodenal/AUCIV×100)” value (clinical) was 43.8%. The “overall systemic exposure (AUC) lower for ileocecal dosing compared with duodenal dosing” value (clinical) was 15%, the AUC(0-t) (clinical; AUC0–96) was 17000 ng·h/mL and the AUC(0-inf) ([2]; 1.0 g total IV dose, n = 6) was 23400 ng·h/mL. The Cmax ([2]; 1.0 g total IV dose, n = 6) was 3110 ng/mL, the Tmax ([2]; 1.0 g total IV dose, n = 6) was 1.9 h and the AUC(0-inf) ([2]; 2.0 g total IV dose, n = 6) was 45600 ng·h/mL. The Cmax ([2]; 2.0 g total IV dose, n = 6) was 6840 ng/mL, the Tmax ([2]; 2.0 g total IV dose, n = 6) was 1.8 h and the AUC(0-inf) ([2]; 4.0 g total IV dose, n = 5) was 82100 ng·h/mL. For the same compound, the Cmax ([2]; 4.0 g total IV dose, n = 5) was 9910 ng/mL, the Tmax ([2]; 4.0 g total IV dose, n = 5) was 1.1 h and the “patients reporting gastrointestinal side effects” value ([3]; oral) was 9.6%. For the same compound, the “incidence of abdominal pain” value [3] was 2.5%, the incidence of diarrhea [3] was 3.6% and the incidence of nausea [3] was 2.6%. For the same compound, the elimination half-life [4] was “about 69 hours”, the “oral bioavailability of an azithromycin capsule” value ([5]; typical value) was “about 38%” and the oral bioavailability ([5]; used to convert intravenous to equivalent oral doses) was 37%.
